This is an account of results in patent US20260308158A1, “TARGETING RNAS ASSOCIATED WITH TAUOPATHIES WITH SMALL MOLECULES” (University of Florida Research Foundation, Incorporated, priority 2023, published 2026).

The test system of data set [1] is DDPAC I17T MAPT mini-gene (exon 10 splicing). As to the kind of experiment: 4R/3R MAPT mRNA by RT-qPCR, HeLa cells transfected with DDPAC I17T mini-gene. Type of data set: cell-based. Here is the method:
RNA Isolation and Real-Time Quantitative PCR (RT-qPCR). HeLa cells were treated as described in the Luciferase Reporter assay to Study Exon 10 Alternative Splicing. LAN5 cells were seeded in 12-well plates at 0.2×10^6 cells per well, treated with compound or ASO, and incubated for 48 h. Compound stocks prepared in DMSO and ASO stocks prepared in water were diluted in growth medium and added to cells. Total RNA was extracted from cells and analyzed via RT-qPCR to determine levels of 3R and 4R tau mRNA. In brief, the cells were washed with 1×DPBS and then lysed in the well using 300 μL of Lysis Buffer provided in a Quick-RNA MiniPrep kit (Zymo Research), which was used to extract total RNA per the manufacturer's protocol including the on-column DNase I digestion. The concentration of total RNA was measured by NanoDrop 2000 (Thermo Fisher Scientific). Only samples with OD260/OD280>1.8 were carried forward for analysis. Reverse transcription (RT) was carried out on 200 ng of total RNA using a qScript cDNA synthesis kit (QuantaBio) in a total volume of 10 μL according to the manufacturer's protocol. An Applied Biosystems QS5 384-well PCR system was used to complete qPCR reactions with Power SYBR Green Master Mix (Life Technologies), 600 nM each primer (Table S3), 20 ng of cDNA (1 μL of the RT reaction), in a total volume of 33 μL. Technical triplicates (10 μL each) were aliquoted into 384-well qPCR plates (Applied biosystems, 4483285). Subsequent qPCR analysis was performed using an Applied Biosystems QS5 384-well PCR system (software v.1.3.0). 4R/3R ratio were analyzed using ΔΔCt method using Equation 2: […]
where ΔCt 4R or ΔCt 3R is the difference between the Ct values for the 4R or 3R MAPT mRNA and a housekeeping gene (18S rRNA) in total RNA from cells.

The test system of another data set is WT SRE RNA. As to the kind of experiment: In vitro competitive Chem-CLIP (C-Chem-CLIP), WT SRE RNA. The settings on record: 3 at 1.5 μM, read-out: IC50, competition of the binding of 3. The protocol:
In Vitro Chemical Cross-linking and Isolation by Pull Down (Chem-CLIP) and Competitive Chem-CLIP (C-Chem-CLIP). Growth medium [Dulbecco's modified eagle medium (DMEM; corning, 10-013-CM) with 1× Glutagro (corning)] and 10% (v/v) fetal bovine serum (FBS; Sigma, 12003C) was inactivated by heating at 95° C. for 15 min and slowly cooling to room temperature. Approximately 10,000 counts of 32P 5′-end labeled tau WT, DDPAC, WT+I17T, or DDPAC+I17T RNA were folded in 10 μL growth medium by heating at 65° C. for 5 min and slowly cooling to room temperature. Chem-CLIP probe 3 or negative control probe 4 was then added into the folded RNA in a total volume of 20 μL, and the mixtures were incubated at 37° C. for 1 h. For C-Chem-CLIP, dilutions of competing compound 2 were incubated with RNA for 30 min before adding 3. […]
The Chem-CLIP probe 3 or control probe 4 was then clicked to disulfide biotin azide (2 μL of 10 mM solution prepared in DMSO solution per sample; Click Chemistry Tools, catalog no. 1168-10). […] The radioactive signal from bound RNAs (on the beads) and unbound RNAs (in the wash buffer) was measured by using a Beckman Coulter LS6500 Liquid Scintillation Counter as Rbound and Runbound. Enrichment was calculated as the percentage of radiolabeled RNA captured by beads calculated as Rbound/(Rbound+Runbound).

Data set [2] in a line: Plasma protein binding by equilibrium dialysis. To be noted: 37° C., 6 h (2 at 5 μM), read-out: free fraction in plasma. Type of data set: in vitro ADME. The protocol: Plasma and brain binding. Plasma protein binding was determined by equilibrium dialysis using a Thermo Scientific™ RED Device per the manufacturer's protocol. Each sample was prepared by addition of 2 into 100 μL plasma with final concentration of 5 μM (0.1% (v/v) DMSO). 1×PBS was used as dialysis buffer and was added into the buffer chamber. The plate was incubated with shaking at 37° C. for 6 h. The concentration of 2 in the plasma and buffer compartments was determined as described in Quantitation of 2 in Mouse Plasma and Brain. The free fraction was calculated as [buffer]/[plasma].
On the technique in general: Equilibrium dialysis compares concentrations on both sides of a semipermeable membrane.

The nature of data set [3]: Body weight / tolerability, WT mice. Type of data set: in vivo, WT mouse (C57BL/6J). To be noted: 100 mg/kg p.o. q.o.d., 20 days. An excerpt:
hTau Mice Studies. htau mice and WT mice (C57BL/6J) were purchased from Jackson Laboratories. htau mice were maintained in-house through breeding between htau+/− mice. Genotype was confirmed by PCR amplification as previously described.^18 Only homozygous mice were used in in vivo studies. Mice were randomly assigned to a treatment group, which were age- and gender-matched (n=X). In these studies, mice were >9 months of age since cognitive and physiological impairments in htau mice was age-dependent and were not presented in young mice (<4 months) with early-stage tau pathology.^42 Mice were orally administered vehicle (5/5/90 DMSO/Tween-80/H2O) or 100 mg/kg of 2 in the same formulation every other day (q.o.d.). During the treatment period, nesting activity was assessed, as describe in Nesting Activity below. After 20 days, the mice were euthanized (in accordance with guidelines provided by the American Veterinarian Medical Association), and the brain was harvested for analysis. One hemisphere of the brain was frozen at −80° C. for RT-qPCR analyses while the other was used for histological studies.

Each structure is given as a SMILES string.

On to `COc1cc(N)ncc1CCCN(C)CCCn1cnc2c3ccccc3n(C)c2c1=O` [Compound 2, 3-(3-((3-(6-amino-4-methoxypyridin-3-yl)propyl)(methyl)amino)propyl)-5-methyl-3,5-dihydro-4H-pyrimido[5,4-b]indol-4-one], for which the “PSI10 (PSI of MAPT exon 10) vs vehicle” value in data set [1] is “not WT I17T or DDPAC I17T mutant”. In data set [1] (1 at 10 μM or 2 at 1.5 μM), the “change in 4R/3R ratio (not statistically significant)” value was under 16%. In addition, the IC50 in the data set on WT SRE RNA was about 2000 nM. Moreover, the fraction unbound at 6 h in data set [2] turned out to be 0.089 ± 0.009. Further, in data set [3], the change in weight entry is given as “no change in the weight”.

One may read the IC50 as the concentration that gives 50% inhibition.
